Values of other authors in US6607711B2, “Mouth hygienic composition for the treatment of halitosis” (priority 1997, dated 2003).

Conditions: amount in grams of the compound which can be dissolved per gram solvent (H2O)

[Cl-].[Cl-].[Zn+2] [Zinc chloride]
Solubility (g/g H2O): 4.3 g/g H2O
